The structures appear in SMILES notation.

The target of one assay is T1, 5-Lipoxygenase (Homo sapiens, UniProt P09917).
T1 construct: Human heparinized whole blood was preincubated with test compounds or vehicle for 15 min; endogenous in cells; host or cells: heparinized human whole blood (blood cells stimulated with calcium ionophore A23187)
T1 sequence (P09917 1-674): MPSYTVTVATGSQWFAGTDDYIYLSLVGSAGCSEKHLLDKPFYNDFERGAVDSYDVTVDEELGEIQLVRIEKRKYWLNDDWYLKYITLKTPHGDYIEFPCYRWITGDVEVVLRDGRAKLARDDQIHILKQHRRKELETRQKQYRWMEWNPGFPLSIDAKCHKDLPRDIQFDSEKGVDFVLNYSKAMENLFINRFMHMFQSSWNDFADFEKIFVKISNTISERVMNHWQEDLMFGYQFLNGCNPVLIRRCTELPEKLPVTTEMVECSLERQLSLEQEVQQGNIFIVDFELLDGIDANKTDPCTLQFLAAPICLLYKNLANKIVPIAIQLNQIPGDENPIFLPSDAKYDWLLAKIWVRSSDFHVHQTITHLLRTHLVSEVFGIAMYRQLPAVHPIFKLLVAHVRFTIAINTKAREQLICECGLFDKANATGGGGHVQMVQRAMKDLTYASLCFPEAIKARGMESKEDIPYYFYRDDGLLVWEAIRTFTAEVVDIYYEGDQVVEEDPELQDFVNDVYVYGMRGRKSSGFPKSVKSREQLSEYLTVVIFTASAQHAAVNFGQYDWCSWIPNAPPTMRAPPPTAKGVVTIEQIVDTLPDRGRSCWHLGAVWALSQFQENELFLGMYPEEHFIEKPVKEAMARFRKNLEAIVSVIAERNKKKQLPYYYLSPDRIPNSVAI
In words: Inhibition of calcium ionophore-induced LTB4 biosynthesis in human whole blood (5-lipoxygenase inhibition). In kind it is cell-based. Particulars: human heparinized whole blood, A23187 8.3 μM; for IC50: 15 min preincubation at 37° C., 30 min, read-out: IC50, inhibition of 5-lipoxygenase from stimulated LTB4 formation in human whole blood; for percent inhibition of 5-lipoxygenase from stimulated LTB4 formation in human whole blood: @ 0.1 (column unit 10^-6 M). As for the experimental part:
Inhibition of leukotriene biosynthesis was evaluated in an assay, involving calcium ionophore-induced LTB4 biosynthesis expressed human whole blood. […] The methanol extract was analyzed for LTB4 using a commercially available radioimmunoassay.

In a further assay the test system is leukotriene biosynthesis. In words: Inhibition of leukotriene biosynthesis in vivo after oral administration, rat peritoneal anaphylaxis model. Particulars: at 30 μM/kg, gavage one hour prior to antigen challenge, peritoneal fluid 15 minutes after challenge. The procedure:
Inhibition of the biosynthesis of leukotrienes in vivo after oral administration of compound was determined using a rat peritoneal anaphylaxis model in a similar manner as that described by Yound and coworkers (Young, P. R.; Dyer, R. D.; Carter, G. W. Fed. Proc., Fed. Am. Soc. Exp. Biol. 1985, 44, 1185). In this model rats were injected intraperitoneally (ip) with rabbit antibody to bovine serum albumin (BSA) and three hours later injected ip with BSA to induce an antigen-antibody response. Rats were sacrificed 15 minutes after this challenge and the peritoneal fluids were collected and analyzed for leukotriene levels. Test compounds were administered by gavage one hour prior to the antigen challenge. Percent inhibition values were determined by comparing the treatment group to the mean of the control group.

`NC(=O)N(O)C1CC(c2cccc(Oc3ccc(F)cc3)c2)C1` (single isomer, unassigned) [Example 1a, N-[3-(3-(4-fluorophenoxy)phenyl)-cyclobutyl]-N-hydroxyurea]: on 5-Lipoxygenase, the IC50 (as a rule, the midpoint of a concentration-inhibition curve) came to 130 nM. Further, the “Percent Inhibition of Leukotriene Biosynthesis” value in the assay with leukotriene biosynthesis was 76%. Taken in the same sequence, the figures for `NC(=O)N(O)C1CC(c2cccc(Oc3ccc(F)cc3)c2)C1` (single isomer, unassigned) [Example 1b, N-[3-(3-(4-fluorophenoxy)phenyl)-cyclobutyl]-N-hydroxyurea] were 160 nM and 59%.

`NC(=O)N(O)C1CC(c2ccccc2)C1` (single isomer, unassigned) [Example 2a, N-[3-phenylcyclobutyl]-N-hydroxyurea]: the IC50 at 5-Lipoxygenase was determined as 330 nM. In the assay with leukotriene biosynthesis, the “Percent Inhibition of Leukotriene Biosynthesis” value stood at 51%. For `NC(=O)N(O)C1CC(c2ccccc2)C1` (single isomer, unassigned) [Example 2b, N-[3-phenylcyclobutyl]-N-hydroxyurea] the same measures were 300 nM and 45%.

In the case of `NC(=O)N(O)C1CC(c2ccc(Oc3ccc(F)cc3)s2)C1` (single isomer, unassigned) [Example 3a, N-[3-(5-(4-fluorophenoxy)thien-2-yl)-cyclobutyl]-N-hydroxyurea], the “percent inhibition of 5-lipoxygenase from stimulated LTB4 formation in human whole blood” value at 5-Lipoxygenase is recorded as 53%. `NC(=O)N(O)C1CC(c2ccc(Oc3ccc(F)cc3)s2)C1` (single isomer, unassigned) [Example 3b, N-[3-(5-(4-fluorophenoxy)thien-2-yl)-cyclobutyl]-N-hydroxyurea]: the “percent inhibition of 5-lipoxygenase from stimulated LTB4 formation in human whole blood” value at 5-Lipoxygenase is recorded as 52%. Moreover, the “Percent Inhibition of Leukotriene Biosynthesis” value in the assay with leukotriene biosynthesis is 82%. As for `COc1ccc2cc(C3CC(N(O)C(N)=O)C3)ccc2c1` (single isomer, unassigned) [Example 4a, N-[3-(6-methoxy-2-naphthyl)-cyclobutyl]-N-hydroxyurea], the concentration for half-maximal inhibition (IC50) on 5-Lipoxygenase is 230 nM. On to `COc1ccc2cc(C3CC(N(O)C(N)=O)C3)ccc2c1` (single isomer, unassigned) [Example 4b, N-[3-(6-methoxy-2-naphthyl)-cyclobutyl]-N-hydroxyurea], for which the IC50 on 5-Lipoxygenase stood at 520 nM. Still for that read-out and setting: in the case of `NC(=O)N(O)C1CC(c2ccc(-c3ccccc3)cc2)C1` (single isomer, unassigned) [Example 5a, N-[3-(4-biphenyl)-cyclobutyl]-N-hydroxyurea] it was 90 nM; in that of `NC(=O)N(O)C1CC(c2ccc(-c3ccccc3)cc2)C1` (single isomer, unassigned) [Example 5b, N-[3-(4-biphenyl)-cyclobutyl]-N-hydroxyurea], 960 nM. Same read-out and setting: in the case of `COc1cccc(C2CC(N(O)C(C)=O)C2)c1` (single isomer, unassigned) [Example 6a, N-[3-(3-methoxyphenyl)cyclobutyl]-N-hydroxyacetamide] it was 510 nM; in that of `COc1cccc(C2CC(N(O)C(C)=O)C2)c1` (single isomer, unassigned) [Example 6b, N-[3-(3-methoxyphenyl)cyclobutyl]-N-hydroxyacetamide], 1210 nM.

The record behind these values is patent US5187192A, “Cyclobutyl derivatives having lipoxygenase inhibitory activity” (Abbott Laboratories, priority 1992, dated 1993).
